Laboratory results taken from patent publication US8735569B2, “Nucleoside phosphoramidates” (Gilead Pharmasset LLC, priority 2009, dated 2014).
Converted amounts (≈) assume the structure as drawn.

How the values were obtained:
[1] = Storage stability of crystalline form in a sealed container; format: physicochemical
From the text: First, by allowing fine crystals of Form 1 to be exposed to atmospheric humidity for several days, a monohydrate of Form 1 is produced with an appearance of a solidified gum. After grinding the monohydrate solid to a fine powder, the XRPD pattern remains consistent with Form 1. Upon standing in an open vessel for 6-10 weeks, the ground material slowly changes to Form 6 as an anhydrous solid. Form 1 is stable for at least 2 years in a sealed container.

HCV replication = assay: HCV replicon assay (firefly luciferase reporter); format: cell-based, hepatitis C virus; conditions: replicon containing cells, 4 days incubation, Bright-Glo firefly luciferase reporter
Procedure: Replicon containing cells were seeded at either 3,000 cells/well (50 μL) in 96-well white/opaque plates, or 1,500 cells/well (25 μL) in 384-well white/opaque plates. 50 μL of 2× compound were added in the 96 well plate or 25 μL of 2× compound were added in the 384 well plate. The plates were incubated at 37° C. in a humidified 5% CO2 atmosphere for 4 days. After incubation, Bright-Glo reagent (50 μL for 96-well plate, or 25 μL for 384-well plate) was added to measure the firefly luciferase reporter for HCV replication. Percent inhibition was calculated against the no drug control.

[2] = Thermodynamic aqueous solubility; format: physicochemical; conditions: for pH of Unfiltered mixture: aqueous suspension after 24 hours at 25° C.; for solubility at 24 h / Solubility: water; for solubility at 24 h: 25 °C, thermodynamic from solid, summary of batch characterization (Table 16), read-out: Aq Solubility; for Solubility: equilibrated at 25° C. for 24 hours, HPLC quantitation
Procedure: Aqueous solubility was determined by suspending a sufficient amount of compound in water to give a maximum final concentration of >10 mg·ml^−1 of the parent free-form of the compound. The suspension was equilibrated at 25° C. for 24 hours then the pH was measured. The suspension was then filtered through a glass fiber C filter into a 96 well plate. The filtrate was then diluted by a factor of 101. Quantitation was by HPLC with reference to a standard solution of approximately 0.1 mg·ml^−1 in DMSO. Different volumes of the standard, diluted and undiluted sample solutions were injected. The solubility was calculated using the peak areas determined by integration of the peak found at the same retention time as the principal peak in the standard injection.
Analysis was performed under the above-noted conditions on an Agilent HP1100 series system equipped with a diode array detector and using ChemStation software vB.02.01-SR1.

[3] = test system: hepatitis C virus, genotypes 1-4; assay: Genotype coverage
[4] = Gravimetric vapour sorption (GVS); format: physicochemical; conditions: 25° C.
Procedure: Sorption isotherms were obtained using a SMS DVS Intrinsic moisture sorption analyzer, controlled by SMS Analysis Suite software. The sample temperature was maintained at 25° C. by the instrument controls. The humidity was controlled by mixing streams of dry and wet nitrogen, with a total flow rate of 200 ml·min^−1. The relative humidity was measured by a calibrated Rotronic probe (dynamic range of 1.0-100% RH), located near the sample. The weight change, (mass relaxation) of the sample as a function of % RH was constantly monitored by the microbalance (accuracy ±0.005 mg).
Typically 5-20 mg of sample was placed in a tared mesh stainless steel basket under ambient conditions. The sample was loaded and unloaded at 40% RH and 25° C. (typical room conditions). A moisture sorption isotherm was performed as outlined below (2 scans giving 1 complete cycle). The standard isotherm was performed at 25° C. at 10% RH intervals over a 0.5-90% RH range.
The sample was recovered after completion of the isotherm and re-analyzed by XRPD.
A sample of SP-4 was ground with a pestle and mortar, and then successively passed through 500 and 250 μm sieves to yield the sample as a fine powder that was then analyzed using a modified single cycle method. The sample was taken from 40% RH (approximately ambient) to 60% RH, instead of 90% for the standard method, and then cycled to 0% and back to 40% RH.

[5] = Stability at elevated temperatures and relative humidity; format: physicochemical
Procedure: A sample of RP-4 was stored in a humidity chamber at 40° C. and 75% relative humidity for one week, and the sample was reanalyzed by XRPD. […] This should be contrasted to a sample of 4, which deliquesced within about 16 hours upon storage at 40° C. and 75% relative humidity. Indeed, an illustration of the deliquescent nature of 4 is illustrated by the following. A sample of 4 was passed through a 250 μm sieve then samples were stored at 40° C./75% RH and 25° C./53% relative humidity and visual observations were taken at regular intervals.
Upon storage at 40° C. and 75% relative humidity a sample of SP-4 deliquesced inside 16 hours. For instance, a sample of SP-4 was ground with a pestle and mortar, and then successively passed through 500 and 250 μm sieves to yield the sample as a fine powder. Samples of this material were stored at 40° C. and 75% relative humidity and 25° C. and 53% RH and visual observations were taken at regular intervals.

[6] = summary of batch characterization (Table 16)

SMILES	stable in a sealed container [1]	HCV Replicon Activity (HCV replication)	pH of Unfiltered mixture [2]	solubility at 24 h [2]	Solubility [2]	activity against hepatitis C virus, genotypes 1-4 (broad genotype coverage) [3]	hygroscopicity by GVS analysis [4]	reversible uptake of water ([4]; from 0 to 90% relative humidity)	change in solid form by XRPD after storage ([5]; 40° C. and 75% relative humidity for one week)	40° C./75% RH (stability summary) [5, 6]	time to deliquescence upon storage ([5]; 40° C. and 75% relative humidity)	25° C./53% RH (stability summary) [5, 6]	visual observation (stability to elevated relative humidity) ([5]; 40° C./75% RH, t = 4.5 h)
CC(C)OC(=O)[C@H](C)N[P@](=O)(OC[C@H]1O[C@@H](n2ccc(=O)[nH]c2=O)[C@](C)(F)[C@@H]1O)Oc1ccccc1 [Form 1]	at least 2 years												
CC(C)OC(=O)[C@H](C)N[P@@](=O)(OC[C@H]1O[C@@H](n2ccc(=O)[nH]c2=O)[C@](C)(F)[C@@H]1O)Oc1ccccc1 (single isomer, unassigned) [RP-4]		2.87 µM	7.12	1580 µg/mL (≈ 2.98 mM)	1.58 mg. m1^−1	active	non-hygroscopic	approximately 0.2 wt %	no change in solid form was observed	No form change			
CC(C)OC(=O)[C@H](C)NP(=O)(OC[C@H]1O[C@@H](n2ccc(=O)[nH]c2=O)[C@](C)(F)[C@@H]1O)Oc1ccccc1 (stereo partly drawn) [Compound 4, (S)-2-{[(1R,4R,5R)-5-(2,4-Dioxo-3,4-dihydro-2H-pyrimidin-1-yl)-4-(R)-fluoro-3-hydroxy-4-methyl-tetrahydro-furan-2-ylmethoxy]-phenoxy-phosphorylamino}-propionic acid isopropyl ester]		0.58 µM	7.03	6110 µg/mL (≈ 11.5 mM)	6.11 mg. m1^−1						≤ 16 h	Deliquescence	
CC(C)OC(=O)[C@H](C)N[P@](=O)(OC[C@H]1O[C@@H](n2ccc(=O)[nH]c2=O)[C@](C)(F)[C@@H]1O)Oc1ccccc1 [SP-4, (S)-Isopropyl 2-((S)-(((2R,3R,4R,5R)-5-(2,4-dioxo-3,4-dihydropyrimidin-1(2H)-yl)-4-fluoro-3-hydroxy-4-methyltetrahydrofuran-2-yl)methoxy)(phenoxy)phosphorylamino)propanoate]		0.13 µM		5650 µg/mL (≈ 10.7 mM)	5.65 mg. m1^−1	active						No form change	Deliquescence
